Experimental findings from article PMC3836681 (Journal of molecular biology, 2012) are described below.

What all share (assay type): binding
In experiment [1] the target is T1, RPA0668 (Rhodopseudomonas palustris, UniProt G3XCQ4). Kind of experiment: fluorescence thermal shift. To be noted: 10 µM protein, 1000 µM ligand.
Experiment [2] has as its target T1, RPA0668. Kind of experiment: X-ray crystal structure […] Å. To be noted: SeMet protein, 5 mM sodium PHB in crystallization.
A further experiment deals with SMb20568 (Sinorhizobium meliloti, UniProt Q92TN0). As to the kind of experiment: fluorescence thermal shift. To be noted: 10 µM protein, 1000 µM ligand.
Experiment [3] deals with T2, RPD1586 (Rhodopseudomonas palustris, UniProt Q13AR6). Kind of experiment: X-ray crystal structure […] Å. Particulars: SeMet protein.
Another experiment has as its target Bll5953 (Bradyrhizobium diazoefficiens, UniProt Q89HN7). Kind of experiment: fluorescence thermal shift. To be noted: 10 µM protein, 1000 µM ligand.
The next experiment concerns the target RPA4029 (Rhodopseudomonas palustris, UniProt Q6N2M1). As to the kind of experiment: fluorescence thermal shift. To be noted: 10 µM protein, 1000 µM ligand.
For another experiment, the target named is RPB1579 (Rhodopseudomonas palustris, UniProt Q2IZS1). Kind of experiment: fluorescence thermal shift. Particulars: 10 µM protein, 1000 µM ligand.
Experiment [4] addresses T2, RPD1586. Kind of experiment: X-ray crystal structure […] Å. To be noted: SeMet protein, 5 mM sodium VLA in crystallization.
Experiment [5] deals with T1, RPA0668. As to the kind of experiment: X-ray crystal structure […] Å. Particulars: SeMet protein, 5 mM sodium BEZ in crystallization.

As to `O=Cc1ccccc1` [benzaldehyde], the ΔTm entry on RPA0668 [1] is “excellent thermal stabilization is observed for aromatic compounds with an aldehyde or carboxyl group”.
In the case of `O=C(O)c1ccc(O)cc1` [PHB, 4-hydroxybenzoate], at RPA0668 [2], the “X-ray crystal structure 1.40 Å; fluorescence thermal shift” value was “RPA0668 has been determined in complex with the two most preferred ligands BEZ and PHB”. Also, the ΔTm entry at SMb20568 is “equivalent thermal stabilization with 4-hydroxybenzoate (PHB) and DHB”. For the same compound, the “X-ray crystal structure 2.22 Å; fluorescence thermal shift” value on RPD1586 [3] was “RPD1586 protein from the Ic subgroup was crystallized with PHB, DHB, and VLA”.
Consider `O=C(O)c1ccc(O)c(O)c1` [DHB, 3,4-dihydroxybenzoate], for which the ΔTm result at SMb20568 was “equivalent thermal stabilization with 4-hydroxybenzoate (PHB) and DHB”; at Bll5953 it was “the preferred ligands (DHB, VLA) are the same for each protein”; at RPA4029, “the preferred ligands (DHB, VLA) are the same for each protein”; at RPB1579 it was “the preferred ligands (DHB, VLA) are the same for each protein”.
Take `O=C(O)c1cccc(O)c1` [3-hydroxybenzoate]: the ΔTm result on SMb20568 is reported as “increased protein stability of SMb20568 with 3-hydroxybenzoate or gallic acid”.
`COc1cc(C(=O)O)ccc1O` [VLA, 4-hydroxy-3-methoxybenzoate]: the ΔTm entry on Bll5953 is “the preferred ligands (DHB, VLA) are the same for each protein”; at RPA4029 it was “the preferred ligands (DHB, VLA) are the same for each protein”; on RPB1579, “the preferred ligands (DHB, VLA) are the same for each protein”. Further, the “X-ray crystal structure 1.86 Å; fluorescence thermal shift” value on RPD1586 [4] was “RPD1586 protein from the Ic subgroup was crystallized with PHB, DHB, and VLA”.
`O=C(O)c1cc(O)c(O)c(O)c1` [gallic acid]: the ΔTm result on SMb20568 was “exhibits a greater ΔTm with gallic acid”.
As for `O=C(O)c1ccccc1` [BEZ, benzoate], at RPA0668 [5], the “X-ray crystal structure 1.84 Å; fluorescence thermal shift” value was “RPA0668 has been determined in complex with the two most preferred ligands BEZ and PHB”.
